# Data: PMC3852661, “Structural basis of SUFU–GLI interaction in human Hedgehog signalling regulation” (Acta Crystallographica Section D: Biological Crystallography, 2013)
# Where a SMILES comes first, the peptide text is derived from it. The star is where a group is joined. 5FAM = O=C1OC2(c3ccc(O)cc3Oc3cc(O)ccc32)c2ccc(C(=O)*)cc21
# Tests used:
# [1] = molecular target: T1, MBP-SUFU-Δ (Homo sapiens, UniProt Q9UMX1, DEL285-359/L360P/P281R/P282G/R280S/S279P); assay: Microscale thermophoresis with FAM-GLI1p, MBP-SUFU-Δ; settings: binding to MBP-SUFU-Δ; 50 nM FAM-GLI1p
# T1 construct: subcloning different SUFU32–483 variants into vector pLJMBP4c; His tag (as in MBP-SUFU-FL; purified on HisTrap) (C); made in house; host or cells: Escherichia coli JM109 (DE3)
# Method: (§1) A 5-FAM-labelled peptide (FAM-GLI1p) comprising residues 115–131 of GLI1 (Supplementary Table S1b) was synthesized by Pepceuticals Ltd. A titration series of each recombinant protein was prepared by serial 1:1 dilutions in MST buffer (50 mM Tris–HCl pH 7.6, 150 mM NaCl, 10 mM MgCl2, 0.05% Tween-20) and mixed in a 1:1 ratio with FAM-GLI1p to give final concentrations of 50 nM FAM-GLI1p with MBP-SUFU constructs in the ranges 14.2–29 070 and 54–110 500 nM. Reactions were aspirated into glass capillaries and the thermophoretic movement of FAM-GLI1p was monitored using a Monolith NT.115 instrument (NanoTemper Technologies; Wienken et al., 2010[▶]), with a laser on for 30 s and off for 5 s and a laser power/voltage of 20% for MBP-SUFU-FL and the MBP-SUFU-FL mutants, 40% for MBP-SUFU-Δ and 80% for MBP-SUFU-SH. Fluorescence was measured before laser heating (F Cold) and after 30 s of laser-on time (F Hot). The normalized fluorescence F Hot/F Cold reflects the concentration ratio of labelled molecules. F Hot/F Cold was plotted directly and multiplied by a factor of […], yielding a relative change in fluorescence per thousand. K d was calculated from three independent thermophoresis measurements using NanoTemper software (NanoTemper Technologies).
# [2] = molecular target: T2, MBP-SUFU-FL (Homo sapiens, UniProt Q9UMX1); assay: Microscale thermophoresis with FAM-GLI1p, MBP-SUFU-FL; settings: binding to MBP-SUFU-FL; 50 nM FAM-GLI1p
# T2 construct: containing residues 32–483 of human SUFU and a C-terminal hexahistidine tag; hexahistidine tag (C); made in house; host or cells: Escherichia coli JM109 (DE3)
# Method: as §1
# [3] = test system: MBP-SUFU-SH; assay: Microscale thermophoresis with FAM-GLI1p, MBP-SUFU-SH; set-up: species or system human; settings: binding to MBP-SUFU-SH; 50 nM FAM-GLI1p
# Method: as §1
# [4] = test system: Hh pathway, Sufu −/− MEFs with SUFU-Δ; assay: Hh pathway reactivation in Sufu −/− MEFs expressing SUFU-Δ; type: cell-based, mouse; settings: 48–72 h, luciferase
# Method: (§2) Sufu ^−/− mouse embryonic fibroblast (MEF) cells (Svärd et al., 2006[▶]) were transfected with a mixture of p8x3′Gli-BS LucII or p8x3′Gli-mBS LucII reporter constructs (Sasaki et al., 1997[▶]; generous gifts from Hiroshi Sasaki) together with pRL-SV40 (Promega) internal control using Lipofectamine LTX with Plus reagent (Invitrogen) according to the manufacturer’s instructions. Following transfection, Sufu ^−/− MEF cells were grown until the culture reached confluency (24–48 h) and the cells were then switched to low-serum medium (0.5% FBS) with 100–200 nM SAG (kindly provided by Jan Bergman, Karolinska Institutet), 10 µM purmorphamine (Calbiochem) or Shh conditioned medium (1:4) and grown for an additional 48–72 h. Cell lysis and luciferase activity measurements were performed using a Dual Luciferase Activity Assay Kit (Promega). For statistical evaluation of reporter gene assays, a one-tailed paired Student’s t-test was used. All activity measurements were performed at least three times in independent experiments.
# [5] = test system: Hh pathway, Sufu −/− MEFs with SUFU-FL; assay: Hh pathway reactivation in Sufu −/− MEFs expressing SUFU-FL; type: cell-based, mouse; settings: 48–72 h, luciferase
# Method: as §2
# [6] = test system: Hh pathway, Sufu −/− MEFs with SUFU-SH; assay: Hh pathway reactivation in Sufu −/− MEFs expressing SUFU-SH; type: cell-based, mouse; settings: 48–72 h, luciferase
# Method: as §2
# [7] = test system: Hh pathway, Sufu −/− MEFs with SUFU-IDRfly; assay: Hh pathway reactivation in Sufu −/− MEFs expressing SUFU-IDRfly; type: cell-based, mouse; settings: SAG 100–200 nM, 48–72 h, luciferase
# Method: as §2
# [8] = molecular target: T2, MBP-SUFU-FL; assay: HDX protection of MBP-SUFU-FL by GLI peptides; type: binding
# Method: To compare amide HDX kinetics between MBP-SUFU-FL and MBP-SUFU-Δ, 4 µl of each protein (both at 11 mg ml^−1 in 50 mM Na HEPES pH 7.0, 50 mM NaCl, 5 mM β-mercaptoethanol, 1.5 mM maltose) was mixed with 13 µl deuterated buffer with the same ionic composition as the protein sample. For MBP-SUFU-FL–Gli3p interaction experiments, 45 µl MBP-SUFU-FL (11 mg ml^−1) was mixed with 5 µl Gli3p (6 mM; a 5.5-fold excess) and incubated for 1 h. In the latter case, exchange was initiated by mixing 4 µl MBP-SUFU-FL–Gli3p with 13 µl deuterated buffer with the same ionic composition as the sample. Each reaction was stopped by adding 9 µl quenching solution (4 M urea, 50 mM TCEP, 1% TFA) and flash-freezing in liquid N2. Deuteration reactions were incubated for 60, 300, 600 and 1800 s for the MBP-SUFU-FL and MBP-SUFU-Δ experiments and 300, 600 and 1800 s for the MBP-SUFU-FL–Gli3p interaction experiments (at 4°C, in triplicate). A 24 h incubation was used as a fully deuterated sample for back-exchange correction.
# Samples were analyzed in a semi-automated HDX-MS system (Biomotif AB, Sweden) in which manually injected samples were automatically digested, cleaned and separated at 1.0°C. […]
# [9] = purmorphamine 10 µM, p ≤ 0.05, n = 5
# T2 sequence (Q9UMX1 32-483, other chains not shown): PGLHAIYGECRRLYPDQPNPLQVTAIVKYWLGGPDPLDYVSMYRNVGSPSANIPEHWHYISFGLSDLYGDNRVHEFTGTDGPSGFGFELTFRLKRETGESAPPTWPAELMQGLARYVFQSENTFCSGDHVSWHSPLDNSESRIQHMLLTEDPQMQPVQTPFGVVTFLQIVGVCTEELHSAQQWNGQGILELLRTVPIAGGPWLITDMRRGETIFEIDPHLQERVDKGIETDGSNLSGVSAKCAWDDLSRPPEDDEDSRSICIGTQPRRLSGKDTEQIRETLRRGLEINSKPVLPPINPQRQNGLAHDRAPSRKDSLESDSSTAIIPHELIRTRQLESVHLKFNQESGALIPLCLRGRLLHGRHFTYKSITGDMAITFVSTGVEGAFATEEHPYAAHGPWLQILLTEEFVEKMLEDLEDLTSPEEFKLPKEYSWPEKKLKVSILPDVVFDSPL
# T1 sequence (Q9UMX1 with tags, fused parts or gaps S279P/R280S/P281R/P282G/DEL285-359/L360P limits assumed, other chains not shown): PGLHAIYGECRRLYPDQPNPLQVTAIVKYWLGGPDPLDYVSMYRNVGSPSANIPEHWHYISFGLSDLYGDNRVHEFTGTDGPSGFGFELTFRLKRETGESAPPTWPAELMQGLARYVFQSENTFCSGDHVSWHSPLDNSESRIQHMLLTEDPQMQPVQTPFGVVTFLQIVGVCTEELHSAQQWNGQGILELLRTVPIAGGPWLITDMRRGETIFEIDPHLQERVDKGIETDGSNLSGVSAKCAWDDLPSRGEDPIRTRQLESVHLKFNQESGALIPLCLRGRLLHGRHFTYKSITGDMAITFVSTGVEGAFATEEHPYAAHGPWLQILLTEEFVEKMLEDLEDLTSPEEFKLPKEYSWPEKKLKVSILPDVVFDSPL
compound,measurement,setting,value
CC[C@H](C)[C@H](NC(=O)[C@H](CO)NC(=O)[C@H](CC(C)C)NC(=O)[C@H](Cc1c[nH]cn1)NC(=O)CNC(=O)[C@H](Cc1ccc(O)cc1)NC(=O)[C@H](CO)NC(=O)CNC(=O)CNC(=O)[C@@H]1CCCN1C(=O)[C@H](CO)NC(=O)[C@@H](NC(=O)c1ccc2c(c1)C(=O)OC21c2ccc(O)cc2Oc2cc(O)ccc21)[C@@H](C)O)C(=O)NCC(=O)N[C@H](C(=O)N[C@@H](CCSC)C(=O)N[C@@H](CO)C(=O)N1CCC[C@H]1C(=O)O)[C@@H](C)O [FAM-GLI1p] (5FAM-TSPGGSYGHLSIGTMSP-OH; C-terminus assumed),thermophoretic movement of the peptide on binding,[1],decreased it
same,thermophoretic movement of the peptide on binding,[2],increased the rate of movement in the thermophoretic gradient
same,thermophoretic movement of the peptide on binding,[3],decreased it
c1ccc2c(Oc3nc(Nc4ccc(N5CCOCC5)cc4)c4ncn(C5CCCCC5)c4n3)cccc2c1 [Purmorphamine],pathway reactivation,[4]; [9],the same disparate effects on SUFU-FL and SUFU-Δ repressive function
same,pathway reactivation,"[4]; purmorphamine 10 µM, p ≤ 0.05, n = 5, listed as purmorphamine",Lack of Hh pathway reactivation
same,pathway reactivation,[5]; [9],the same disparate effects on SUFU-FL and SUFU-Δ repressive function
same,pathway reactivation,[6]; purmorphamine 10 µM,Lack of Hh pathway reactivation
CNC1CCC(N(Cc2cccc(-c3ccncc3)c2)C(=O)c2sc3ccccc3c2Cl)CC1 (stereo not shown) [SAG],pathway reactivation,"[4]; SAG 100–200 nM, p ≤ 0.005, n = 10",failed to reactivate the pathway
same,pathway reactivation,[5]; SAG 100–200 nM,overrode repression by the full-length protein
same,pathway reactivation,"[6]; SAG 100–200 nM, p ≤ 0.01, n = 4",failed to reactivate the pathway
same,pathway reactivation,[7],repression could not be relieved
GLI3p-SHC: GLI3 peptide that terminates at His336; residues 328–336 (SSASGSYGH),protection of MBP-SUFU-FL from deuteration (HDX),"[8]; GLI3 peptide that terminates at His336, data not shown",unable to protect MBP-SUFU-FL from deuteration
GLI3p: corresponding peptide from human GLI3; residues 328–344 (SSASGSYGHLSASAISP),protection of MBP-SUFU-FL from deuteration (HDX),"[8]; Gli3p 5.5-fold excess, 1 h pre-incubation, 300, 600 and 1800 s exchange at 4°C, in triplicate, LC-MS",more protected from exchange in the presence of the peptide
